Measurements taken from patent US20080026417A1, “ASSAYS FOR TRICHOMONAL AND OTHER HYDROLASES” (priority 2002, published 2008).

Assays:
trichomonal hydrolases [1] = test: Experiment 13: hydrolysis of peptide substrates by trichomonal hydrolases at low pH in vaginal fluid supernatant; type: biochemical, Trichomonas vaginalis; set-up: key: −: No red color produced; +: Clearly visible red color produced; ++: Moderately intense red color produced; +++: Very intense red color produced; settings: Fast Garnet
Description: (§1) Forty μL of each substrate was pipetted into duplicate wells of a microtiter plate. The plate was covered with tape, placed into a 25° C. incubator, and allowed to warm. A diluted enzyme mixture was prepared by mixing one part (v/v) freshly-thawed trichomonal hydrolase solution to nine parts 2 mM L-cysteine solution. Forty μL of this mixture was added to one well of each pair of duplicate wells. For negative controls, 40 μL of 2 mM L-cysteine was added to the second well in each pair of duplicate wells. The plate was returned to the incubator and incubated for ten minutes. Forty μL of SDS/acetate solution was added to each well, followed by 40 μL of Fast Garnet solution. The intensity of color that developed in each well after five minutes was visually scored using the color scale presented in Table 13.1.
Of the nine substrates hydrolyzed by trichomonal hydrolases to produce an intense pink color (scoring ++ or +++) in the absence of vaginal fluid supernatant, only four produced intense pink color when vaginal fluid supernatant was present.

trichomonal hydrolases [2] = test: Experiment 13: hydrolysis of peptide substrates by trichomonal hydrolases at low pH, no vaginal fluid; type: biochemical, Trichomonas vaginalis; set-up: key: −: No red color produced; +: Clearly visible red color produced; ++: Moderately intense red color produced; +++: Very intense red color produced; settings: without vaginal fluid; threonine buffer pH 2.4; 2 mM substrate solution; 10 min 25° C.; Fast Garnet
Description: as §1

trichomonal hydrolases [3] = test: Experiment 1: hydrolysis of substrates by trichomonal hydrolases at pH 2.8-9.2, with or without normal vaginal fluid supernatant (NVS), absorbance 540 nm; type: biochemical, Trichomonas vaginalis; settings: 540 nm
Description: Assays without normal vaginal fluid supernatant present: Two sets of six wells in a microtiter plate were prepared, with each well containing 80 μL of one of the six 200 mM buffers, 10 μL of water and 10 μL of diluted trichomonal hydrolases. Ten μL of ZRR-MNA was added to each well in the first set of wells, and 10 μl of VLK-MNA was added to each well in the second set of wells. After fifteen minutes, 100 μl of indicator solution was added to each well. Because a high pH can reduce the intensity of color produced by the indicator solution, 50 μl of 100 mM acetic acid buffer, pH 3.7, was added to each well except the pH 2.8 wells (water was substituted for the acetic acid in those wells). After another fifteen minutes, the absorbance of the solutions in the wells was measured on a microtiter plate reader set on 540 nm wavelength.
Assays with normal vaginal fluid supernatant (NVS) present: The procedure of the preceding paragraph was followed, except that 10 μL of diluted NVS was added to the wells in place of the 10 μL of water.

[4] = tested on: non-trichomonal hydrolases present in whole vaginal fluid; test: Experiment 9: dipeptide inhibition of hydrolases in whole vaginal fluid of uninfected women; type: biochemical, human; set-up: key: 0: Yellow; 1: Peach; 2: Orange; 3: Light to medium pink; 4: Dark pink or red; 5: Fuchsia; 6: Purple; settings: ZRR-MNA, 10 mM dipeptide in substrate solution
Description: (§2) For each specimen, the vaginal fluid was extracted from the swab by centrifugation, 2 μL of the vaginal fluid supernatant was removed from the microfuge tube, and the remainder of the fluid was mixed to resuspend the particulate matter. For each specimen, 2 μL of the thus reconstituted vaginal fluid was pipetted into each of four microwells, then 2 μL of one of the four substrate/dipeptide combinations was added to each well. The 2 μL of vaginal fluid supernatant from each specimen was mixed with 18 μL of trichomonal hydrolases, and 2 μL of this mixture was mixed with 2 μL of each of the substrate/dipeptide combinations in another set of four wells. After fifteen minutes, 2 μL of indicator solution was added to each well.

trichomonal hydrolases [5] = test: Experiment 9: dipeptide inhibition of trichomonal hydrolases mixed with vaginal fluid supernatant; type: biochemical, Trichomonas vaginalis; set-up: key: 0: Yellow; 1: Peach; 2: Orange; 3: Light to medium pink; 4: Dark pink or red; 5: Fuchsia; 6: Purple; settings: trichomonal hydrolase added, ZRR-MNA, 10 mM dipeptide in substrate solution
Description: as §2

[6] = Donor A vaginal fluid supernatant
[7] = Donor B vaginal fluid supernatant
[8] = Donor C vaginal fluid supernatant
[9] = Donor D vaginal fluid supernatant

COc1cc(NC(=O)[C@H](CCCNC(=N)N)NC(=O)[C@@H](NC(=O)[C@H](Cc2ccccc2)NC(=O)c2ccccc2)C(C)C)cc2ccccc12 [BZ-Phe-Val-Arg-MNA]
Color Score (trichomonal hydrolases [1]): +
Color Score (trichomonal hydrolases [2]): ++

COc1cc(NC(=O)[C@H](CCCN=C(N)N)NC(=O)[C@H](CCCN=C(N)N)NC(=O)[C@H](C)NC(=O)OCc2ccccc2)cc2ccccc12 [CBZ-Ala-Arg-Arg-MNA]
Color Score (trichomonal hydrolases [1]): +
Color Score (trichomonal hydrolases [2]): ++

COc1cc(NC(=O)[C@H](CCCNC(=N)N)NC(=O)[C@H](Cc2ccccc2)NC(=O)OCc2ccccc2)cc2ccccc12 [CBZ-Phe-Arg-MNA]
Color Score (trichomonal hydrolases [1]): +
Color Score (trichomonal hydrolases [2]): ++

COc1cc(NC(=O)C(CCCCN)NC(=O)C(CC(C)C)NC(=O)C(N)C(C)C)cc2ccccc12 [VLK-MNA, D-Val-Leu-Lys-MNA]
Color Score (trichomonal hydrolases [1]): +
Absorbance Readings (trichomonal hydrolases [3]; with vaginal fluid supernatant, Acetate pH 5.1): 0.065
Absorbance Readings (trichomonal hydrolases [3]; with vaginal fluid supernatant, Borate pH 9.2): 0.062
Absorbance Readings (trichomonal hydrolases [3]; with vaginal fluid supernatant, Gly-gly pH 2.8): 0.094
Absorbance Readings (trichomonal hydrolases [3]; with vaginal fluid supernatant, HEPES pH 7.5): 0.063
Absorbance Readings (trichomonal hydrolases [3]; with vaginal fluid supernatant, MOPS pH 7.0): 0.066
Absorbance Readings (trichomonal hydrolases [3]; with vaginal fluid supernatant, TRIS pH 8.0): 0.073
Absorbance Readings (trichomonal hydrolases [3]; without vaginal fluid supernatant, Acetate pH 5.1): 1.622
Absorbance Readings (trichomonal hydrolases [3]; without vaginal fluid supernatant, Borate pH 9.2): 1.459
Absorbance Readings (trichomonal hydrolases [3]; without vaginal fluid supernatant, Gly-gly pH 2.8): 0.691
Absorbance Readings (trichomonal hydrolases [3]; without vaginal fluid supernatant, HEPES pH 7.5): 1.217
Absorbance Readings (trichomonal hydrolases [3]; without vaginal fluid supernatant, MOPS pH 7.0): 1.087
Absorbance Readings (trichomonal hydrolases [3]; without vaginal fluid supernatant, TRIS pH 8.0): 1.219
Color Score (trichomonal hydrolases [2]): ++

COc1cc(NC(=O)[C@H](CCCN=C(N)N)NC(=O)[C@H](CC(C)C)NC(=O)OCc2ccccc2)cc2ccccc12 [ZLR, CBZ-Leu-Arg-MNA]
Color Score (trichomonal hydrolases [1]): +++
Color Score (trichomonal hydrolases [2]): +++

Lysine-lysine
Hydrolase activity color score with dipeptide ([4]; Donor A whole vaginal fluid): 1
Hydrolase activity color score with dipeptide ([4]; Donor B whole vaginal fluid): 0
Hydrolase activity color score with dipeptide ([4]; Donor C whole vaginal fluid): 0
Hydrolase activity color score with dipeptide ([4]; Donor D whole vaginal fluid): 2.5
Hydrolase activity color score with dipeptide (trichomonal hydrolases [5]; [6]): 1
Hydrolase activity color score with dipeptide (trichomonal hydrolases [5]; [7]): 2
Hydrolase activity color score with dipeptide (trichomonal hydrolases [5]; [8]): 1
Hydrolase activity color score with dipeptide (trichomonal hydrolases [5]; [9]): 2

Lysine-proline
Hydrolase activity color score with dipeptide ([4]; Donor A whole vaginal fluid): 0
Hydrolase activity color score with dipeptide ([4]; Donor B whole vaginal fluid): 0
Hydrolase activity color score with dipeptide ([4]; Donor C whole vaginal fluid): 0
Hydrolase activity color score with dipeptide ([4]; Donor D whole vaginal fluid): 0
Hydrolase activity color score with dipeptide (trichomonal hydrolases [5]; [6]): 1
Hydrolase activity color score with dipeptide (trichomonal hydrolases [5]; [7]): 1
Hydrolase activity color score with dipeptide (trichomonal hydrolases [5]; [8]): 0.5
Hydrolase activity color score with dipeptide (trichomonal hydrolases [5]; [9]): 2

Lysine-valine
Hydrolase activity color score with dipeptide ([4]; Donor A whole vaginal fluid): 1
Hydrolase activity color score with dipeptide ([4]; Donor B whole vaginal fluid): 0
Hydrolase activity color score with dipeptide ([4]; Donor C whole vaginal fluid): 0
Hydrolase activity color score with dipeptide ([4]; Donor D whole vaginal fluid): 1.5
Hydrolase activity color score with dipeptide (trichomonal hydrolases [5]; [6]): 1
Hydrolase activity color score with dipeptide (trichomonal hydrolases [5]; [7]): 2
Hydrolase activity color score with dipeptide (trichomonal hydrolases [5]; [8]): 1
Hydrolase activity color score with dipeptide (trichomonal hydrolases [5]; [9]): 2
